Drawing on patent US4175081A, “5-Substituted thiadiazole ureas” (priority 1977, dated 1979), this text covers pest or weed control for one molecule.

The subject of test [1] is Crabgrass (CG). The test can be described thus: Pre-emergence herbicide test. Format: in vivo, Digitaria sanquinalis. Conditions: Digitaria sanguinalis, pre-emergence, 336 h; 8 lb/acre; two weeks after treatment. The method in brief: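 Crabgrass (Digitaria sanquinalis) was surface seeded in 3' plastic pots of potting soil, covered with screened soil, and watered by sub-irrigation in greenhouse trays. Pots were seeded one day before spraying in a hood with a moving belt and fixed nozzle. Plants stayed in the greenhouse on sub-irrigation, and pre-emergence control was rated visually two weeks after treatment.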

Test [2] deals with Yellow foxtail grass (YF). Briefly: Pre-emergence herbicide test. Format: in vivo, Setaria glauca. Conditions: Setaria, 336 h, 8 lb/acre, two weeks after treatment. The procedure:
Yellow foxtail grass (YF)--Setaria glauca
All crop and weed species were planted individually in 3' plastic pots containing potting soil. Four seeds each of corn, cotton, and snapbeans were seeded to a depth equal to the diameter of the seed. All other species were surface seeded and sprinkled with screened soil in an amount sufficient to cover the seed. Immediately after planting, all pots were watered by sub-irrigation in greenhouse trays. Pots for the pre-emergence phase were seeded one day before treatment.
Compounds were tested at rates of application equivalent to 8 lbs. of actual compound per acre in a spray volume of 38 gallons per acre. Spray hood constants required to deliver the above volume are as follows:
Formulations for spray applications were prepared in 50 ml volumes with the following three components:
Formulations for the 4 lbs/acre rate were prepared by adjusting the amount of active ingredient accordingly.
Spray applications were made in a hood containing a removable belt and fixed spray nozzle. For passage through the spray hood, one pot of each specie (pre-emergence phase) was placed on the rear half of the flat. Treatments were removed to the greenhouse after spraying. Watering during the observation period was done only by sub-irrigation.
Two weeks after treatment, pre- and post-emergence injury or control was visually rated, and the results were as shown in the following tables. Pre-emergence data are provided in TABLE III and post-emergence data are provided in TABLE IV, for compounds having the formula illustrated in TABLE I. Correspondingly, pre-emergence and post-emergence data, respectively, are set forth in TABLES V AND VI, for compounds having the formula illustrated in TABLE II.

For test [3], the system named is Johnson grass (JG). Briefly: Pre-emergence herbicide test. Format: in vivo, Sorgum helepense. To be noted: Sorghum halepense, 336 h, 8 lb/acre, two weeks after treatment. The method in brief:
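Visual injury or control rating two weeks post-treatment, after pre-emergence spray of 8 or 4 lbs active per acre (38 gal/acre) onto pots sown the previous day. Greenhouse watering by sub-irrigation only.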

The test system of test [4] is Barnyard grass (BG). The test can be described thus: Pre-emergence herbicide test. It counts as in vivo. To be noted: Echinochloa crus-galli, 336 h, 8 lb/acre, two weeks after treatment. The method in brief:
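Greenhouse pre-emergence spray test: pots seeded one day before treatment received compound at rates of 8 or 4 lb/acre (38 gal/acre). Visual injury/control scores for Echinochloa crus-galli taken at two weeks, with watering by sub-irrigation only.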

Test [5] deals with Amaranth pigweed (PW). The test can be described thus: Pre-emergence herbicide test. It counts as in vivo, Amaranthus retroflexus. To be noted: 336 h, 8 lb/acre, two weeks after treatment. The method in brief:
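Visual injury or control ratings were made at two weeks on pre-emergence pots, sub-irrigated in the greenhouse. Seeds were sown a day before a hood spray delivering 8 lbs/acre (or 4 lbs/acre) of compound in 38 gallons per acre.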

The test system of test [6] is Turnip (TP). Briefly: Pre-emergence herbicide test. Format: in vivo, Brassica sp. Conditions: Brassica rapa, pre-emergence, 336 h; 8 lb/acre; two weeks after treatment. The method in brief: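 In this pre-emergence greenhouse test, turnip was seeded on the surface of potting soil in 3' plastic pots, lightly covered with screened soil, and watered from below. One day later the pots were sprayed in a belt-fed spray hood. Watering continued only by sub-irrigation, and percent control was visually scored two weeks after treatment.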

The subject of test [7] is Cotton (CT). The test can be described thus: Pre-emergence herbicide test. Format: in vivo, Gossypium hirsutum var. DPL smooth leaf. Conditions: Gossypium hirsutum, 336 h, 8 lb/acre, two weeks after treatment. The method in brief:
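Visual injury/control ratings were taken at two weeks post-spray. Pots seeded a day earlier received compound pre-emergence at 8 lbs/acre, or 4 lbs/acre, in a 38 gallon/acre spray volume, and were then held in the greenhouse, watered only from below.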

In test [8] the test system is Corn (CN). Briefly: Pre-emergence herbicide test. Format: in vivo. To be noted: Zea mays, 336 h, 8 lb/acre, two weeks after treatment. The method in brief: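 Visual injury/control ratings were made 2 weeks post-spray on corn pots seeded (4 seeds, seed-diameter depth) the day before treatment. Application was a belt-hood spray of 38 gal/acre delivering 8 lbs active per acre, with a 4 lbs/acre rate also formulated. Watering was by sub-irrigation throughout.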

In test [9] the test system is Bean (BN). The test can be described thus: Pre-emergence herbicide test. Format: in vivo, Phaseolus vulgaris var. Black Valentine. To be noted: Phaseolus vulgaris, 336 h, 8 lb/acre, two weeks after treatment. The method in brief: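 Visual injury/control ratings were taken two weeks post-spray on sub-irrigated Phaseolus vulgaris var. Black Valentine. Pots were sown a day before treatment. Pre-emergence spray delivered 8 lbs actual compound per acre (or 4 lbs/acre) at 38 gallons per acre.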

In test [10] the test system is Crabgrass (CG). Briefly: Post-emergence herbicide test. Format: in vivo, Digitaria sanquinalis. Conditions: Digitaria sanguinalis, post-emergence, 336 h; 8 lb/acre; two weeks after treatment. The method in brief:
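Crabgrass (Digitaria sanquinalis) was surface seeded individually in 3' plastic pots of potting soil, covered with screened soil, and watered by sub-irrigation in greenhouse trays. Planting was staggered so seedlings reached the target stage together. Post-emergence sprays were applied in a hood with a removable belt and fixed nozzle, and control was visually rated two weeks after treatment.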

The subject of test [11] is Yellow foxtail grass (YF). Briefly: Post-emergence herbicide test. It counts as in vivo, Setaria glauca. Conditions: Setaria, 336 h, 8 lb/acre, two weeks after treatment. The method in brief:
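Visual rating of injury/control made 2 weeks post-spray. Seedlings at a uniform growth stage in soil-filled pots received a hood spray of 8 lbs/acre active compound, 38 gallons/acre volume, with a 4 lbs/acre rate also formulated. Watering was by sub-irrigation only.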

The subject of test [12] is Johnson grass (JG). The test can be described thus: Post-emergence herbicide test. Format: in vivo, Sorgum helepense. To be noted: Sorghum halepense, 336 h, 8 lb/acre, two weeks after treatment. The method in brief: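 Visual injury or control scores taken 2 weeks after a post-emergence spray of pot-grown plants. Application was 8 lbs/acre (or 4 lbs/acre) in 38 gal/acre. Plants were held in the greenhouse with sub-irrigation only.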

For test [13], the system named is Barnyard grass (BG). Briefly: Post-emergence herbicide test. Format: in vivo. Conditions: Echinochloa crus-galli, 336 h, 8 lb/acre, two weeks after treatment. The method in brief: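 Greenhouse pot-grown barnyard grass seedlings sprayed post-emergence at 8 lbs active compound per acre (some at 4 lbs/acre) in 38 gallons per acre, then sub-irrigated. Injury or control rated visually two weeks after treatment.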

Test [14] relates to Amaranth pigweed (PW). Briefly: Post-emergence herbicide test. To be noted: 336 h, 8 lb/acre, two weeks after treatment. It counts as in vivo, Amaranthus retroflexus. The method in brief: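 Visual injury or control ratings were made two weeks after spraying, with greenhouse watering by sub-irrigation only. Treatment was post-emergence, when pigweed seedlings had 1 or 2 true leaves, at 8 lbs active compound per acre (4 lbs/acre formulations also made) in a 38 gallons-per-acre spray volume.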

Test [15] has as its system Turnip (TP). Briefly: Post-emergence herbicide test. Format: in vivo, Brassica sp. Conditions: Brassica rapa, post-emergence, 336 h; 8 lb/acre; two weeks after treatment. The method in brief: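 A greenhouse post-emergence herbicide test on turnip. Seeds were sown on the surface of potting soil in 3' plastic pots, lightly covered with screened soil and watered from below. Planting was timed so seedlings had 1 or 2 true leaves above the cotyledons at spraying, done in a hood with a fixed nozzle. Control or injury was scored by eye after two weeks.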

Test [16] relates to Cotton (CT). Briefly: Post-emergence herbicide test. It counts as in vivo, Gossypium hirsutum var. DPL smooth leaf. To be noted: Gossypium hirsutum, post-emergence, 336 h; 8 lb/acre; two weeks after treatment. The method in brief:
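This greenhouse post-emergence test measured how well spray treatments controlled cotton. Seedlings of Gossypium hirsutum var. DPL smooth leaf, with expanded cotyledons and a first true leaf 1' in length, were sprayed with 50 ml formulations in a belt-fed spray hood. They were then returned to the greenhouse and watered only by sub-irrigation. Injury was scored visually as % control after two weeks.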

Test [17] has as its system Corn (CN). Briefly: Post-emergence herbicide test. It counts as in vivo. To be noted: Zea mays, 336 h, 8 lb/acre, two weeks after treatment. The method in brief:
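Greenhouse seedlings grown in potting soil and sprayed post-emergence at 8 lbs compound/acre (formulations also made for 4 lbs/acre) in 38 gallons/acre spray volume. Watering by sub-irrigation only. Injury or control rated visually two weeks after treatment.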

Test [18] concerns Bean (BN). The test can be described thus: Post-emergence herbicide test. Format: in vivo, Phaseolus vulgaris var. Black Valentine. Conditions: Phaseolus vulgaris, post-emergence, 336 h; 8 lb/acre; two weeks after treatment. The method in brief:
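Bean seedlings (Phaseolus vulgaris var. Black Valentine) were grown in potting soil in 3' pots until the primary leaves expanded. They were then sprayed under a hood with a removable belt and fixed nozzle, using 50 ml formulations. Afterward they were returned to the greenhouse and watered only by sub-irrigation. Percent control was judged visually two weeks after treatment.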

Turning to `O=C(Nc1ccccc1)Nc1nnc(C(F)(F)F)s1` [Example 14], the pest or weed control at 8966.8 g/ha in test [1] came to 10%; in [2] it was 10%; in test [3], 20%; in [4] it was 10%; in test [5], 90%; in test [6], 10%. For the same molecule, the pest or weed control at 8966.8 g/ha in test [7] was 50%; in [8], 50%; in test [9] it was 100%; in test [10] it was 10%; in test [11], 10%; in [12] it was 20%. Besides, the pest or weed control at 8966.8 g/ha was determined as 10% in test [13]; 90% in test [14]; 10% in test [15]; 50% in [16]; 50% in test [17]; 100% in test [18].
